Measured values as given in ChEMBL document CHEMBL3044919 (Med Chem Res, 2005).

What was measured:
[1] = Displacement of [3H]DTG from sigma-1 receptor in Cavia porcellus (guinea pig) brain membranes; design: species or system Membrane
[2] = target: Sigma non-opioid intracellular receptor 1 (Cavia porcellus, UniProt Q60492); test: Displacement of [3H](+)pentazocine from sigma-1 receptor in Cavia porcellus (guinea pig) brain membranes; design: species or system Membrane
Cavia porcellus = species on record: Cavia porcellus; test: Selectivity ratio of Ki for sigma-2 receptor in Cavia porcellus (guinea pig) brain membranes to Ki for sigma-1 receptor in Cavia porcellus (guinea pig) brain membranes
[3] = target: Kappa-type opioid receptor (Homo sapiens, UniProt P41145); test: Binding affinity to Kappa opioid receptor (unknown origin)
Kappa-type opioid receptor, sequence (P41145 whole entry): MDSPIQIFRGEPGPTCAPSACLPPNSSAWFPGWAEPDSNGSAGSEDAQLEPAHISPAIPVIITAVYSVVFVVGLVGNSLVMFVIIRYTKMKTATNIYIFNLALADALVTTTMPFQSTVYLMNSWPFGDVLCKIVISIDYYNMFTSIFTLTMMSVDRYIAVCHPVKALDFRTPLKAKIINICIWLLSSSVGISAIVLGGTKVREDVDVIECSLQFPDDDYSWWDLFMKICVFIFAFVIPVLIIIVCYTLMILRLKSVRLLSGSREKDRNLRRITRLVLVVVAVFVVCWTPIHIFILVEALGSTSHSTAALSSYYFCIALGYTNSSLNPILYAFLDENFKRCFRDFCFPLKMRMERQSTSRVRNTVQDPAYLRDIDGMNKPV

Histamine H1 receptor = Histamine H1 receptor (Homo sapiens, UniProt P35367); test: Binding affinity to histamine H1 (unknown origin)
Histamine H1 receptor, sequence (P35367 whole entry): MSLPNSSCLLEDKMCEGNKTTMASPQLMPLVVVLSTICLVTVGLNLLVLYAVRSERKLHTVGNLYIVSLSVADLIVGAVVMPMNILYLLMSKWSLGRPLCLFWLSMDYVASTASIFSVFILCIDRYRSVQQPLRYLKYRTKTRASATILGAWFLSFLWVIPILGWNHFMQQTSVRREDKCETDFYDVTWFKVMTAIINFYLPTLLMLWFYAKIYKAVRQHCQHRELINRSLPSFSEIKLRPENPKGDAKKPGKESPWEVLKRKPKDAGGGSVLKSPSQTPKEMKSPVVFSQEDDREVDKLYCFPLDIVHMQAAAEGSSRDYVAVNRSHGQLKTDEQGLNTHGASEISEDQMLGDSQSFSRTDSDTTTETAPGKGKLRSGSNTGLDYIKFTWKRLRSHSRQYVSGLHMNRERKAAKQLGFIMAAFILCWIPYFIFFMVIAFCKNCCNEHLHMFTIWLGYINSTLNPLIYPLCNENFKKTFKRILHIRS

[4] = target: T1, Adrenergic receptor alpha-2 (Homo sapiens, UniProt P08913+P18825+P18089); test: Binding affinity to alpha2 receptor (unknown origin)
T1 sequence (P08913 whole entry): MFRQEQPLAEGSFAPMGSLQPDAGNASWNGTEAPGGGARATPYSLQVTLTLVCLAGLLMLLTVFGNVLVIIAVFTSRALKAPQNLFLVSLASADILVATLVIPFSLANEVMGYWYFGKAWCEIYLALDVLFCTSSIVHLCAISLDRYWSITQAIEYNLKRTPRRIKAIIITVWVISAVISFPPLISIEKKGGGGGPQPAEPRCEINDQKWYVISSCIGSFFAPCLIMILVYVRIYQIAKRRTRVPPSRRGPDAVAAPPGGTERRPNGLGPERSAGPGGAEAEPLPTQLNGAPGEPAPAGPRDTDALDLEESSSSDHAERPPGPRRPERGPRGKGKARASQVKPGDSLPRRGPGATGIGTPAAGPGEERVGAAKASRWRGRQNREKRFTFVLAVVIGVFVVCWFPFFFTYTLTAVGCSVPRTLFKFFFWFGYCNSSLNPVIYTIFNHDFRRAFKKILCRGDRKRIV
T1 sequence (P18825 whole entry): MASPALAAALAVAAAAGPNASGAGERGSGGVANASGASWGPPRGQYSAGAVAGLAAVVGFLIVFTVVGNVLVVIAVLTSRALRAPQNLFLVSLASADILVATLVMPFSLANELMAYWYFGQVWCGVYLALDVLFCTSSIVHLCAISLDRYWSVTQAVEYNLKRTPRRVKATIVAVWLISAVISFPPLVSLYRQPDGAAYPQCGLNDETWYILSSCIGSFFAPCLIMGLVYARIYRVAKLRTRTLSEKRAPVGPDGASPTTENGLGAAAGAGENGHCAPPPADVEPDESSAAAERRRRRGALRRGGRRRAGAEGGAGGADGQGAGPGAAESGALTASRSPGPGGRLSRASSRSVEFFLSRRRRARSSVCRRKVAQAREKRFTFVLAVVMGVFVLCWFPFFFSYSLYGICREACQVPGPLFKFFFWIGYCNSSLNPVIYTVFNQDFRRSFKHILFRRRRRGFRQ
T1 sequence (P18089 whole entry): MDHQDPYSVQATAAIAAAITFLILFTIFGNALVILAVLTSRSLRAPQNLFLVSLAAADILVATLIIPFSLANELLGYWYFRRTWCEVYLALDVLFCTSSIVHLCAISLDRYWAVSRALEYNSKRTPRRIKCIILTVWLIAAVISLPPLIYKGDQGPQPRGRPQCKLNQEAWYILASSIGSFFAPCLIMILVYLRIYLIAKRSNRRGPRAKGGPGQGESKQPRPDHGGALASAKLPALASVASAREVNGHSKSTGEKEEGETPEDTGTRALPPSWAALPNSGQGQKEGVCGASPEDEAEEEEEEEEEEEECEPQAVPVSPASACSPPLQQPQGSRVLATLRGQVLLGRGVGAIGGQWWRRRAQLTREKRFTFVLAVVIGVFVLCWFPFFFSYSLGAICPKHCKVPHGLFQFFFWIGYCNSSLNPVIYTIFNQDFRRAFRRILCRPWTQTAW

Sigma non-opioid intracellular receptor 1, sequence (Q60492 whole entry): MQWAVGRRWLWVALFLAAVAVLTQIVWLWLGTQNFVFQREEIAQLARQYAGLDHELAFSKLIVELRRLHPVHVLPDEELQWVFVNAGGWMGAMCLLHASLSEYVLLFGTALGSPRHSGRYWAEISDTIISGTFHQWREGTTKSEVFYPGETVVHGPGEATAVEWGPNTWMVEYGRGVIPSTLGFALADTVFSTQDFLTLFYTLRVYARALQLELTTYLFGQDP

Row | Structure (SMILES) | Ki [1] [nM] | Ki [2] [nM] | Ratio Ki (Cavia porcellus) | Ki [3] [nM] | Ki (Histamine H1 receptor) [nM] | Ki [4] [nM]
1 | CCCCc1ccc2c(c1)sc(=O)n2CCN1CCCCC1 | > 1000 | 3.7 | – | – | – | –
2 | CCCc1ccc2c(c1)OCC(=O)N2CCN1CCCCC1 | > 1000 | 28 | – | – | – | –
3 | CCCc1ccc2c(c1)sc(=O)n2CCN1CCCCCC1 | > 1000 | 0.56 | > 1000 | – | 311 | 205
4 | CCC(=O)c1ccc2c(c1)oc(=O)n2CCCN1CCCCC1 | 496 | 8.5 | 58 | – | – | –
5 | O=C(c1ccc2c(c1)sc(=O)n2CCN1CCCCC1)C1CC1 | > 1000 | > 1000 | – | – | – | –

Now from value to compound, other results behind:

Row | Ki [1] [nM] | Ki [2] [nM] | Ratio Ki (Cavia porcellus) | Ki [3] [nM] | Structure (SMILES) | Ki (Histamine H1 receptor) [nM] | Ki [4] [nM]
6 | – | 1.26 | 2 | 418 | CN(C[C@@H]1C[C@@]1(CO)c1ccccc1)C12CC3CC(CC(C3)C1)C2 (relative stereo) | – | –
7 | 202 | 2.3 | 87 | – | CCC(=O)c1ccc2c(c1)sc(=O)n2CCCN1CCCCC1 | – | –
8 | > 1000 | 1.4 | – | – | CCCc1ccc2c(c1)sc(=O)n2CCN1C[C@]2(C)CCC[C@]2(C)C1 | – | –
9 | 13 | 2.9 | 4.5 | – | CCCc1ccc2c(c1)sc(=O)n2CCCCN1CCCCC1 | – | –
10 | > 1000 | 1.2 | > 1000 | – | CCCc1ccc2c(c1)sc(=O)n2CCCN1CCCCC1 | – | –
11 | 18 | 0.6 | 30 | – | CCCc1ccc2c(c1)sc(=O)n2CCN1CCCCC1 | – | –
